How the values were obtained:
Assay in all cases: drug sensitivity score (DSS) from 5-point dose-response viability curve (DSS (area-under-curve based score)); higher = more sensitive (stronger growth inhibition or killing); extreme values may be limits of the assay
Conditions in all cases: exposure time: 72 h; concentration range: 5 concentrations over 10,000-fold range
[1] = tested on: JHOS2
Summary of the method: (§1)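 Drug sensitivity scores were calculated in Breeze software for each cell line and drug pair; higher scores indicate more sensitivity. A score of zero indicates no response. The underlying assay used 384-well plates: drugs were placed by an Echo 550 acoustic dispenser at five concentrations spanning a 10,000-fold range, 1,500 ovarian cancer or normal ovarian cells were added per well, and cells were kept 3 days at 37°C, 5% CO2. Viability was then measured with CellTiter-Glo luminescence on a PHERAstar FS.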

[2] = tested on: OVCAR8
Summary of the method: as §1

[3] = tested on: CAOV3
Summary of the method: as §1

[4] = tested on: HOSE1C
Summary of the method: as §1

[5] = tested on: OV90
Summary of the method: as §1

[6] = tested on: COV318
Summary of the method: as §1

[7] = tested on: Ovsaho
Summary of the method: as §1

[8] = tested on: OVCAR5
Summary of the method: as §1

[9] = tested on: OVCAR4
Summary of the method: as §1

[10] = tested on: COV362
Summary of the method: as §1

[11] = tested on: Kuramochi
Summary of the method: as §1

[12] = tested on: HOSE2C
Summary of the method: as §1

| Compound | drug sensitivity score [1] | drug sensitivity score [2] | drug sensitivity score [3] | drug sensitivity score [4] | drug sensitivity score [5] | drug sensitivity score [6] | drug sensitivity score [7] | drug sensitivity score [8] | drug sensitivity score [9] | drug sensitivity score [10] | drug sensitivity score [11] | drug sensitivity score [12] |
| --- | --- | --- | --- | --- | --- | --- | --- | --- | --- | --- | --- | --- |
| CC[C@@H](C(=O)[C@@H](C)[C@@H](O)[C@H](C)[C@@H]1O[C@@H]([C@@H](CC)C(=O)O)CC[C@@H]1C)[C@H]1O[C@]2(C=C[C@@H](O)[C@]3(CC[C@@](C)([C@H]4CC[C@](O)(CC)[C@H](C)O4)O3)O2)[C@H](C)C[C@@H]1C [Salinomycin] | 18.3 | 17.9 | 15.4 | 21.2 | 19.4 | 13.4 | 27.1 | 13.2 | 14.2 | 8.2 | 21 | 22.1 |
| CC(C)n1nc(-c2ccc3oc(N)nc3c2)c2c(N)ncnc21 [Sapanisertib] | 7.4 | 9.8 | 8.4 | 13 | 15.2 | 8.2 | 14.6 | 12.4 | 10.7 | 3.2 | 8.9 | 10.9 |
| CNC(=O)CN1CCC(Oc2cc3c(Nc4cccc(Cl)c4F)ncnc3cc2OC)CC1 [Sapitinib] | 0 | 0 | 6.8 | 0 | 0 | 0 | 0.7 | 1.7 | 0 | 0 | 0 | 0 |
| CN1CCN(CCOc2cc(OC3CCOCC3)c3c(Nc4c(Cl)ccc5c4OCO5)ncnc3c2)CC1 [Saracatinib] | 3.1 | 5.1 | 8.2 | 2 | 5 | 0.4 | 7 | 9.2 | 3.8 | 5.6 | 9.7 | 5 |
| CC1=C2C[C@H]3[C@@H](CC[C@@H]4C[C@H](NS(C)(=O)=O)CC[C@@]43C)[C@@H]2CC[C@@]2(C1)O[C@@H]1C[C@H](C)CN[C@H]1[C@H]2C [Saridegib] | 0 | 0.4 | 0.5 | 2.3 | 0 | 0 | 0 | 0 | 0 | 0 | 0 | 0.1 |
| O=C(/C=C\n1cnc(-c2cc(C(F)(F)F)cc(C(F)(F)F)c2)n1)NNc1cnccn1 [Selinexor] | 13.9 | 17.4 | 18.7 | 29 | 8.2 | 8.2 | 16.5 | 15.3 | 10.7 | 7.9 | 8.1 | 9.3 |
| Cc1cc(F)c(C(=O)Nc2cccc(-c3nncn3C(C)C)n2)cc1-n1cnc(C2CC2)c1 [Selonsertib] | 0 | 0 | 0 | 0 | 0.1 | 0 | 0 | 0 | 0 | 0 | 0 | 0 |
| Cn1cnc2c(F)c(Nc3ccc(Br)cc3Cl)c(C(=O)NOCCO)cc21 [Selumetinib] | 5.4 | 2.1 | 11.2 | 0.2 | 20.1 | 0 | 11.1 | 11.2 | 4.2 | 5.8 | 5.4 | 0 |
| CN1CCN(C(=O)c2ccc3cc(CCNc4ncnc5ccc(C#N)cc45)ccc3c2)CC1 [Senexin B] | 0 | 0.2 | 0.2 | 0 | 0.5 | 0 | 1.3 | 1.7 | 1.1 | 0 | 2.6 | 0 |
| Nc1nc2cc(-c3ccc4ncc(C(=O)N5CCOCC5)n4c3)ccc2o1 [Serabelisib] | 0 | 0 | 2.9 | 0 | 0.1 | 0 | 0.8 | 1.8 | 0 | 0 | 0 | 5.1 |
| O=C(O)c1ccc2c(c1)nc(Nc1cccc(Cl)c1)c1ccncc12 [Silmitasertib] | 4.4 | 4.7 | 8.6 | 7.7 | 5.8 | 3.2 | 4.7 | 5.3 | 3.3 | 0.9 | 5.5 | 4.5 |
| CCC(C)(C)C(=O)O[C@H]1C[C@@H](C)C=C2C=C[C@H](C)[C@H](CC[C@@H]3C[C@@H](O)CC(=O)O3)[C@H]21 [Simvastatin] | 0.2 | 2.9 | 0.1 | 8.7 | 1.5 | 0 | 3.5 | 0 | 0.7 | 0.4 | 1.3 | 8.8 |
| CO[C@H]1C[C@@H]2CC[C@@H](C)[C@@](O)(O2)C(=O)C(=O)N2CCCC[C@H]2C(=O)O[C@H]([C@H](C)C[C@@H]2CC[C@@H](O)[C@H](OC)C2)CC(=O)[C@H](C)/C=C(\C)[C@@H](O)[C@@H](OC)C(=O)[C@H](C)C[C@H](C)/C=C/C=C/C=C/1C [Sirolimus] | 3.6 | 4 | 3.9 | 4.8 | 7.7 | 1.2 | 4.4 | 4.3 | 1.9 | 0 | 3.8 | 0 |
| COCCNCc1ccc(-c2cc3nccc(Oc4ccc(NC(=O)C5(C(=O)Nc6ccc(F)cc6)CC5)cc4F)c3s2)nc1 [Sitravatinib] | 1.2 | 0.5 | 1.9 | 2.6 | 1.6 | 0.5 | 0 | 4.5 | 0.7 | 2.3 | 2.5 | 3.3 |
| Cc1c(C(=O)Nc2ccc(N3C[C@@H](C)O[C@@H](C)C3)nc2)cccc1-c1ccc(OC(F)(F)F)cc1 [Sonidegib] | 2.2 | 3.3 | 0 | 1.6 | 1.3 | 2.6 | 2.5 | 1.2 | 0.2 | 0 | 4.7 | 1.8 |
| C=CCN(/C=C1/C(=O)O[C@H](COC)[C@@]2(C)C1=C(O)C(=O)C1=C2[C@H](OC(C)=O)C[C@]2(C)C(=O)CC[C@@H]12)CC=C [Sonolisib] | 0 | 0 | 0 | 0 | 0 | 0 | 0 | 0 | 0 | 0 | 0 | 0.6 |
| CNC(=O)c1cc(Oc2ccc(NC(=O)Nc3ccc(Cl)c(C(F)(F)F)c3)cc2)ccn1 [Sorafenib] | 0 | 0 | 0 | 0 | 0 | 0 | 0 | 0 | 0 | 0 | 0 | 0 |
| CN1CCN(c2nc(C3=C(c4c[nH]c5ccccc45)C(=O)NC3=O)c3ccccc3n2)CC1 [Sotrastaurin] | 0.2 | 0.1 | 1.2 | 0 | 0 | 0 | 0 | 0 | 0 | 1.5 | 0 | 0 |
| C=CC(=O)Nc1cccc(Nc2nc(Nc3ccc(OCCOC)cc3)ncc2F)c1 [Spebrutinib] | 1.9 | 0 | 0.3 | 0 | 1.3 | 2 | 2.2 | 1.2 | 2 | 0.9 | 1.6 | 0.4 |
| CC(C)n1cnc2c(NCCc3ccc(O)cc3)nc(-c3csc4ccccc34)nc21 [StemRegenin 1] | 1 | 1.6 | 0 | 3.8 | 1.2 | 1.1 | 1.8 | 4.2 | 1.1 | 2 | 1.3 | 2.2 |
| CCN(CC)CCNC(=O)c1c(C)[nH]c(/C=C2\C(=O)Nc3ccc(F)cc32)c1C [Sunitinib] | 0.1 | 0 | 0 | 0 | 0 | 0 | 0 | 0 | 0 | 0 | 0 | 0 |
| CC(C)(O)CC(=O)NCCn1ccc2ncnc(Nc3ccc(Oc4cccc(C(F)(F)F)c4)c(Cl)c3)c21 [TAK-285] | 0 | 0.1 | 2.5 | 0 | 0 | 0 | 0.2 | 2 | 0 | 0.2 | 0.9 | 0 |
| CCS(=O)(=O)c1cccc(-c2cc(C(=O)NC3CCN(C)CC3)c(C)c3[nH]c4ncc(C)cc4c23)c1 [TAK-901] | 1.2 | 2.8 | 16.9 | 3.5 | 4.6 | 1.4 | 7.5 | 4.7 | 5.8 | 1.1 | 6.8 | 7.4 |
| Cc1cccc(-c2[nH]c(CNc3ccccc3F)nc2-c2ccc3ncnn3c2)n1 [TEW-7197] | 0 | 0.1 | 0 | 0 | 0 | 0 | 0 | 1.3 | 0 | 5 | 0 | 0.9 |
| Nc1nc(N)c2nc(-c3cccc(O)c3)c(-c3cccc(O)c3)nc2n1 [TG100-115] | 0 | 0 | 0.3 | 0 | 0 | 0 | 0 | 0.4 | 2.3 | 0.9 | 1.2 | 0 |
| Cc1cc(C(C)Nc2ccccc2)c2nc(N3CCOCC3)cc(=O)n2c1 (configuration not stated) [TGX-221] | 0 | 1.2 | 0.8 | 0 | 0.2 | 0 | 7.8 | 2.1 | 1.7 | 0.3 | 7.9 | 0 |
